Results as given in publication PMC7356587, “Efficacy, Stability, and Safety Evaluation of New Polyphenolic Xanthones Towards Identification of Bioactive Compounds to Fight Skin Photoaging” (Molecules, 2020).
Marks after values point to notes of the source that are not given here.

Tests used:
[1] = DPPH reduction assay; details: for IC50: DPPH reduction, 60 min incubation
Experimental: The reduction of the stable DPPH free radical was measured by monitoring the change in absorbance at 517 nm. These experiments were made in a 96-well microplate. […] In each experiment, the compounds were tested in the concentration range 0.7812 μM to 50 μM, in triplicate. For each sample concentration, a blank with ethanol 70%, instead of DPPH was made. Ascorbic acid was used as a positive control and tested in the same conditions. Blanks containing only ethanol 70% and control containing DPPH in ethanol 70% (190 μM) were used. The absorbance at 517 nm was measured in a microplate reader BioTek^TM Synergy HT (BioTeck Instruments, Vermont, USA) after 60 min of incubation in the dark with a temperature-controlled holder at 25 °C. The microplate was shaken before each reading.
The scavenging percentage of DPPH was calculated using the following equation:(1) %scavenging of DPPH=100×(1−Abssample+DPPH−Abssample blank/AbsDPPH−AbsEtOH)
The IC50 value for each sample and for the ascorbic acid was obtained by linear regression.

[2] = tested on: collagenase; assay: Collagenase inhibition assay; format: biochemical
Experimental: An adaptation of the method of Moore and Stein [40] with modifications by Mandl et al. was used to determine anticollagenase activity. To 2 mL test tubes was added: 25 μL of collagenase solution (0.8 U/mL), 25 μL TES buffer (50 mM) with 0.36 mM calcium chloride (pH 7.4) and 50 μL of test sample or the reference compound EDTA (with concentrations ranging between 9.4 and 150 μM). The tubes were incubated in a water bath at 37 °C for 20 min. Thereafter, 50 μL FALGPA (1 mM) solution was added to the tubes and incubated further for 60 min at 37 °C. To all tubes, 200 μL of a solution containing equal volumes of a 1.6 mg/mLTin chloride (II) solution in 200 mM citrate buffer (pH 5) and 50 mg/mL ninhydrin solution in DMSO was added. All tubes were placed in a water bath (100 °C) for 5 min and left to cool to room temperature before adding 200 μL of 50% isopropanol to each tube. Contents in the tubes were then transferred to respective wells in 96-well plates.

[3] = tested on: hyaluronidase
Experimental: The methods described by Ndlovu et al. and Zhou et al. were applied for the hyaluronidase inhibition assay. Into 2 mL test tubes was placed: 50 μL of calcium chloride (12.5 mM), 50 μL of test samples or sodium aurothiomalate diluted in 0.1 M acetate buffer; pH 3.5 (with concentrations ranging between 9.4 and 150 μM), and 25 μL hyaluronidase (0.5 mg/mL). The tubes were incubated in a water bath (37 °C; 20 min) after which 50 μL of the substrate hyaluronic acid (0.25 mg/mL in 0.1 M acetate buffer; pH 3.5) was added and the tubes incubated for further 40 min. Twenty-five microliters of KBO2 • 4 H2O (0.8 M) was added to all tubes which were placed in a water bath (100 °C) for 3 min, left to cool to room temperature, and 800 μL of DMAB (4 g DMAB in 40 mL acetic acid and 5 mL 10 N HCl) was added. The tubes were then incubated for 20 min and the contents transferred to respective wells in a 96-well plate. Absorbance was detected at 585 nm in a Bio-Rad Model 680 Microplate Reader (Bio-Rad Laboratories, Inc., Hercules, CA, USA). Percentage of hyaluronidase inhibition was calculated as:(3) % hyaluronidase inhibition =Abscontrol−Abssample/Abscontrol×100 where Abscontrol is the absorbance of buffer + hyaluronidase; Abssample is the absorbance of buffer + hyaluronidase + sample/standard.

[4] = Metal-chelating effect by UV/Vis, FeCl3; format: physicochemical; details: methanolic solution
Experimental: (§1) The ultraviolet/visible (UV/Vis) spectra were recorded in methanol using a path length of 1 cm, at room temperature on a Varian CARY100 spectrophotometer (Agilent Technologies, Santa Clara, California, United States) from a range of 200 nm to 500 nm (software CaryWin UV, v. 3.0). The metal-chelating effect was evaluated by described procedures with stock solutions (1.0 × 10^−4 M) in methanol. Iron (III) and copper (II) solutions were prepared in a concentration of 1.0 × 10^−3 M from FeCl3 and CuCl2 in deionized water.

[5] = Metal-chelating effect by UV/Vis, CuCl2; format: physicochemical; details: methanolic solution
Experimental: as §1

[6] = UV/Vis absorption spectra; format: physicochemical; details: UVB range 280–320 nm
Experimental: as §1

[7] = Stability in pH buffers; format: physicochemical; details: pH buffers 2-8, 21 days, room temperature, 200 µM
Experimental: All the solutions were prepared following Portuguese Pharmacopeia 9.0 specifications (F.P. (VIII) 2008). A solution at 10 mM in DMSO of each compound was prepared. One hundred microliters of antioxidant solution were diluted to 5 mL of the different buffered pH solutions, prepared in triplicate. Their absorbance measured by UV/Vis spectrophotometry in the wavelength range between 200 and 500 nm at time intervals of 0, 1, and 2 h and 1, 8, 15, and 21 d at room temperature. Each pH buffer solution was used as a compensation solution.

[8] = tested on: HaCaT cells; assay: Phototoxicity evaluation, HaCaT NRU assay; format: cell-based, human
Experimental: The HaCaT cells were maintained at 37 °C in a humidified atmosphere of 95% air and 5% CO2 in the incubator in dulbecco’s modified eagle’s medium (DMEM) with 10% fetal bovine serum (FBS) and 1% antibiotics. Using an inverted microscope, cell confluence was observed and if the cells reached 70–80% confluence, subculture was done to prevent cell death. For this purpose, the culture medium was aspirated and the cells were washed with dulbecco’s phosphate buffered saline (DPBS), 2 mL of trypsin-EDTA were added and incubated for 5–8 min at 37 °C in a 5% CO2 atmosphere. After cell detaching, medium was added in order to block the trypsin action and cell suspension was centrifuged at 416 g for 5 min. The supernatant was discarded, the pellet suspended in culture medium, and cells were counted. For cell counting: 50 μL of cell suspension were added to 50 μL of Trypan Blue vital dye […], resuspended, placed in a Neubauer chamber (Hirschmann, Germany) and the viable cells were counted. For cell freezing, DMSO (5% v/v) was used as a cryopreservative to prevent the formation of crystals during the storage phase.
HaCaT cells were seeded onto 96-well tissue culture plates (Orange Scientific, Braine-l’Alleud, Belgium) at a 2 × 10^4 cells/well density and incubated at 37 °C in a 5% CO2 atmosphere for 24 h. […] In this last step, the absorbance was measured at 540 nm. […]

[9] = tested on: HaCaT cell; set-up: method as in doi:10.1016/j.arabjc.2017.01.006, PMID 31167479; details: cited from earlier work
[10] = Solubility in ethanol 70%; format: physicochemical

solubility [10] | SMILES | IC50 [1] [µM] | Collagenase % Inhibition (150 µM) [2] | Hyaluronidase % Inhibition (150 μM) [3] | change of UV/Vis spectrum on sequential additions of FeCl3 [4] | change of UV/Vis spectrum on sequential additions of CuCl2 [5] | capacity to absorb UV radiation [6] | pH stability [7] | cytotoxicity to HaCaT cells ([8]; 12.5-200 µM, with and without UVA irradiation, NRU) | phototoxicity ([8]; up to 200 µM, HaCaT NRU assay) | decrease in HaCaT cell viability in the neutral red assay [9] [%] | cytotoxic effect ([9]; up to 50 µM, MTT, neutral red, Alamar Blue, Trypan Blue assays) | maximum reduction activity ([1]; DPPH, IC50 not determinable, probably due to solubility issues)
 | O=C1O[C@H]([C@@H](O)CO)C(O)=C1O [Ascorbic Acid, Ascorbic acid, reference compound] | 40 ± 0.8 |  |  |  |  |  |  |  |  |  |  | 
 | O=c1c2ccccc2oc2ccc(O)c(O)c12 [Compound 1, 1,2-dihydroxy-9H-xanthen-9-one] | 28.4 ± 0.2 | 35.77 ± 1.82 ^a % | n.a. (Not active (0% inhibition)) | bathochromic shifts | bathochromic shifts | high absorbance in the UVB range | more stable in the pH range that is closest to the pH of the skin | not cytotoxic | nonphototoxic | 83 | did not promote a significant cytotoxic effect | 
 | Cc1cc(O)c(O)c2oc3ccccc3c(=O)c12 [Compound 2, 3,4-dihydroxy-1-methyl-9H-xanthen-9-one] | 31.2 ± 4.8 | 26.83 ± 1.45 ^b % | n.a. (Not active (0% inhibition)) | bathochromic shifts were observed | no effect was observed | high absorbance in the UVB range | a degradation of the compound for the range of pH tested overtime is observed |  |  |  |  | 
 | Cc1cc(O)c(O)c2oc3cc(O)ccc3c(=O)c12 [Compound 3, 3,4,6-trihydroxy-1-methyl-9H-xanthen-9-one] | 47.3 ± 0.4 |  | n.a. (Not active (0% inhibition)) | bathochromic shifts were observed | no effect was observed | high absorbance in the UVB range |  |  |  |  |  | 
low solubility | COc1cc(O)c2c(=O)c3ccccc3oc2c1O [Compound 4, 1,4-dihydroxy-3-methoxy-9H-xanthen-9-one] |  |  |  |  |  |  |  |  |  |  |  | lower than 50%
